According to US20090304615A1, “TRICYCLIC COMPOUNDS AS MELANOGENESIS MODIFIERS AND USES THEREOF” (priority 2007, published 2009):
Counter-ions that a name gives are not always drawn.

Test system: cultured murine melanocytes (melan-a)
Assay: Melanin assay in cultured murine melanocytes (melan-a)
Format: cell-based
Conditions: Mus musculus, melan-a cells; for inhibition at 1 µM / inhibition at 5 µM: melanin formation, 72 hours of incubation; for IC50: melanin synthesis, read-out: IC50 range
Description: The Spectrum Collection library consisting of 2000 drug compounds or natural products was screened to identify novel pigmentation inhibitors or stimulators in cultured murine melanocytes (melan-a). Compounds were dissolved in dimethylsulfoxide (DMSO) to a final concentration of 10 mM. Screening was performed with cultured melanocytes in 24-well plates followed by melanin assay (see below). […] DMSO was used as a negative control and the widely used depigmenting agent, hydroquinone, was used as a positive control on every plate. […] All compounds were added at the indicated final concentrations. Cells were harvested after 72 hours of incubation, and melanin assay was performed. For further test and mechanism of action studies, the compounds were purchased from either Sigma or Microsoure. These compounds were dissolved in dimethylsulfoxide (DMSO) to a final concentration of 10 mM, and were tested for their effect on melanin synthesis at the indicated final concentrations. For the primary and secondary screening, cells were harvested and dissolved in 200 μl of 2N NaOH in 20% DMSO at 70° C. A 180-μl aliquot of the resulting solution was measured for absorbance at 490 nm. […] The lysates were centrifuged at 14,000 rpm for 10 minutes at 4° C. BCA protein assay kit (Pierce) was used to measure the protein concentrations of the supernatants, and bovine serum albumin was used as a standard. […] A 180-μl aliquot of the resulting solution was measured for absorbance at 490 nm. The melanin contents were normalized to the total amount of protein.

SMILES | inhibition at 1 µM [%] | inhibition at 5 µM [%] | IC50 [nM]
CNCCC=C1c2ccccc2CCc2ccccc21 [compound 1, Nortriptyline] | 39 | 58 | 1000 to 2500
CN(C)CCC=C1c2ccccc2CCc2ccccc21 [compound 2, Amitriptyline hydrochloride] | 51 | 65 | < 1000
CC(CN(C)C)CN1c2ccccc2CCc2ccccc21 (centres unmarked) [compound 3, Trimpramine maleate] | 28 | 48 | 1000 to 2500
CN(C)CCCN1c2ccccc2CCc2ccccc21 [compound 5, Imipramine hydrochloride] | 34 | 60 | < 1000
CNCCCN1c2ccccc2CCc2ccccc21 [compound 6, Despramine hydrochloride] | – | – | 2500 to 5000
CNCCCC1c2ccccc2C=Cc2ccccc21 [compound 8, Protriptyline hydrochloride] | – | – | 5000 to 10000
